Assay results as given in patent publication US9254283B2, “Therapeutic agent for migraine” (priority 2008, dated 2016).

System: cerebral vascular smooth muscle (basilar arteries)
Test: Cerebral vasoconstriction effect: inhibition of adenosine-induced relaxation of isolated basilar artery rings
Conditions: dog basilar artery rings
Procedure: Dogs were anesthetized by intravenous administration of sodium pentobarbital, exsanguinated by decapitation and subjected to craniotomy. The basilar arteries were removed, and ring specimens of cerebral vascular smooth muscle measuring about 2 mm in width were prepared. Each ring specimen was fixed to an injection needle (cut into a 2-mm piece) with a silk thread. The injection needle was fixed to a holder installed in an Easy Magnus Device (Model: UC-2; Kishimoto Medical Instruments), and the specimen was allowed to stabilize for 60 minutes or more under a resting tension of 0.2 g (1.96 mN) in a 37° C. nutritive solution. […] Separately, in the same manner as in the test compound-administered group, dimethylsulfoxide alone was cumulatively added in place of the test compound (solvent-added group). The contraction of the cerebral vascular smooth muscle was then recorded on a recorder (Yokogawa Electric Corporation) from a transducer (Nihon Kohden Corporation) connected to the holder, to which the specimen was fixed, via a strain pressure amplifier (Nihon Kohden Corporation) (n=6). […] The cerebral vasoconstriction effect was determined as the percentage inhibition (%) of the adenosine-induced cerebral vascular smooth muscle relaxation, and comparison was made between the test compound-added group and the solvent-added group.

## CC(C)(O)CCN1CCN(c2cc3nc(-c4ccco4)nn3c(N)n2)CC1 [Compound (IB)]
Versus solvent-added group
  suppressing effect on adenosine-induced cerebral vascular smooth muscle relaxation (in words): confirmed

## Cc1ccc(C(=O)Nc2nc(-c3ccco3)c(C(=O)C3CCOCC3)s2)cn1 [(IIC)]
Canis lupus familiaris, 10 nmol/L, n=6, solvent-added group 0.6±7.6%, read-out: percentage inhibition of the adenosine-induced cerebral vascular smooth muscle relaxation
  inhibition at 0.01 µM: 97.4 ± 1.8%
